# Test results as given in paper PMC9736374, “Design, Synthesis and Antimicrobial Properties of New Tetracyclic Quinobenzothiazine Derivatives” (International Journal of Molecular Sciences, 2022).
# Experiments:
# MRSA 63718 = tested on: MRSA 63718; parameters: method as in PMID 25692135; settings: cited from earlier work
# [1] = tested on: vancomycin-resistant E. faecalis VRE 368 (VRE2); assay: MBC, agar aliquot subculture method; type: cell-based, Enterococcus faecalis; settings: VRE2 = VRE 368
# [2] = tested on: vancomycin-resistant E. faecalis VRE 368 (VRE2); assay: MIC, microtitration broth method; type: cell-based, Enterococcus faecalis; settings: VRE2 = VRE 368; 24 h, 37 °C
# [3] = tested on: methicillin-resistant S. aureus SA 3202 (MRSA1); assay: MBC, agar aliquot subculture method; type: cell-based; settings: Staphylococcus aureus; MRSA1 = SA 3202
# [4] = tested on: vancomycin-resistant E. faecalis VRE 342B (VRE1); assay: MBC, agar aliquot subculture method; type: cell-based, Enterococcus faecalis; settings: VRE1 = VRE 342B
# [5] = tested on: methicillin-resistant S. aureus SA 630 (MRSA2); assay: MBC, agar aliquot subculture method; type: cell-based; settings: Staphylococcus aureus; MRSA2 = SA 630
# [6] = tested on: methicillin-resistant S. aureus SA 3202 (MRSA1); assay: MIC, microtitration broth method; type: cell-based; settings: Staphylococcus aureus; MRSA1 = SA 3202; 24 h, 37 °C
# [7] = tested on: methicillin-resistant S. aureus 63718 (MRSA3); assay: MBC, agar aliquot subculture method; type: cell-based; settings: Staphylococcus aureus; MRSA3 = 63718
# [8] = tested on: methicillin-resistant S. aureus 63718 (MRSA3); assay: MIC, microtitration broth method; type: cell-based; settings: Staphylococcus aureus; MRSA3 = 63718; 24 h, 37 °C
# [9] = tested on: vancomycin-resistant E. faecalis VRE 342B (VRE1); assay: MIC, microtitration broth method; type: cell-based, Enterococcus faecalis; settings: VRE1 = VRE 342B; 24 h, 37 °C
# S. aureus = assay: Crystal violet uptake (membrane permeability); type: cell-based, Staphylococcus aureus; settings: 4× MIC, 1 h; compared to growth control and 1% Tween 20
# Description: Phenothiazines are also known for their ability to interact with and damage the cell wall, which has fatal consequences for the microorganism. Therefore, the bacterial suspensions were treated by compounds 6a, 6e, 6g, 6j and 6k (4× MIC) for 1 h. The uptake of crystal violet was expressed as a percentage compared to the original crystal violet solution.
# [10] = tested on: Enterococcus faecalis ATCC 29212; assay: MBC, agar aliquot subculture method; type: cell-based; settings: ATCC29212; EF = Enterococcus faecalis
# [11] = tested on: vancomycin-resistant E. faecalis VRE 725B (VRE3); assay: MIC, microtitration broth method; type: cell-based, Enterococcus faecalis; settings: VRE3 = VRE 725B; 24 h, 37 °C
# M. smegmatis ATCC 700084 = assay: In vitro antimycobacterial MIC, broth dilution micro-method; type: cell-based, Mycobacterium smegmatis; settings: Mycolicibacterium smegmatis, ATCC700084, 72 h; MS = M. smegmatis ATCC 700084; 3 days, 37 °C
# [12] = tested on: Mycobacterium marinum CAMP 5644; assay: as above; type: cell-based; settings: CAMP5644, 504 h; MM = Mycobacterium marinum CAMP 5644; 21 days, 28 °C
# [13] = tested on: Staphylococcus aureus ATCC 29213; assay: MBC, agar aliquot subculture method; type: cell-based; settings: ATCC29213; SA = Staphylococcus aureus ATCC 29213
# [14] = tested on: S. aureus ATCC 29213 respiratory activity; assay: MTT assay of bacterial respiration; type: cell-based, Staphylococcus aureus
# [15] = tested on: Enterococcus faecalis ATCC 29212; assay: MIC, microtitration broth method; type: cell-based; settings: ATCC29212; EF = Enterococcus faecalis; 24 h, 37 °C
# Lipophilicity by RP-TLC = type: physicochemical; settings: Tris buffer pH 7.4/acetone, read-out: logPTLC
# Description: The lipophilicity parameters were determined experimentally using reverse phase thin-layer chromatography (RP-TLC). Chromatograms were prepared on RP-18F254s plates (1.05559.0001, Merck, Germany) precoated with nonpolar silicone oil. Plates were developed in glass chromatography chambers previously saturated with vapor of mobile phase. The mobile phase was composed of 0.2M Tris buffer (pH = 7.4) and acetone in different concentrations, i.e., 50%, 60%, 70%, 80 and 90%. The chromatograms were visualised in UV light (λ = 254 nm). Determination of the RF coefficient was carried out twice for all compounds; in all cases, acetone concentrations used. The final value of RF is the mean of the two measurements. The obtained RF coefficient was used to calculate the value of the RM parameter according to the equation: RM = log [(1/RF) − 1]. By extrapolating RM values to zero acetone concentration, a relative RM0 lipophilicity parameter was obtained, according to the equation: RM = RM0 + bC, where b is slope and C is concentration of acetone in mobile phase. Based on RM0 and the calibration curve, the values of logPTLC for compounds 6a–l were determined. The calibration curve was calculated using the relationship between RM0 of the standard molecules (acetanilide, p-kresol, p-bromoacetophenone, benzophenone, anthracene) and the corresponding logP parameters specified by the extraction method, respectively. RM0 parameters of the standard molecules and quinobenzothiazine derivatives 6a–l were determined in the same empirical conditions.
# [16] = tested on: Staphylococcus aureus ATCC 29213; assay: MIC, microtitration broth method; type: cell-based; settings: ATCC29213; SA = Staphylococcus aureus ATCC 29213; 24 h, 37 °C
# [17] = tested on: normal human dermal fibroblasts (NHDF); assay: In vitro cell viability, WST-1 assay; type: cell-based; settings: 72 h
# Description: Compounds were evaluated for their antiproliferative activity using NHDF (normal human dermal fibroblasts, ATCC, Manassas, VA, USA). The cultured cells were kept at 37 °C and 5% CO2. The cells were seeded (1 × 10^4 cells/well/100 μL DMEM supplemented with 10% FCS and streptomycin/penicillin) into 96-well plates (Corning Inc., Corning, NY, USA). Cells were counted using a hemocytometer (Burker chamber) and phase contrast Olympus IX50 microscope equipped with Sony SSC-DC58 AP camera and Olympus DP10 digital camera. The cell viability of the compounds was determined using the Cell Proliferation Reagent WST-1 assay (Roche Molecular Biochemicals, Mannheim, Germany). The examined cells were exposed to the tested compounds (1 mg/mL DMSO stock) for 72 h at various concentrations (0.1–100 μg/mL). The control was included in order to eliminate the DMSO effect at the concentration used. Cell cultures were incubated with WST-1 (10 μL) for 1 h. The absorbance of the samples was measured against a background control at 450 nm using a microplate reader with a reference wavelength at 600 nm. The obtained results are expressed as means of at least two independent experiments performed in triplicate.
# [18] = tested on: vancomycin-resistant E. faecalis VRE 725B (VRE3); assay: MBC, agar aliquot subculture method; type: cell-based, Enterococcus faecalis; settings: VRE3 = VRE 725B
# [19] = tested on: methicillin-resistant S. aureus SA 630 (MRSA2); assay: MIC, microtitration broth method; type: cell-based; settings: Staphylococcus aureus; MRSA2 = SA 630; 24 h, 37 °C
# [20] = S. aureus ATCC 29213, MTT, 24 h
smiles,measurement,setting,value
CN[C@H](CC(C)C)C(=O)N[C@H]1C(=O)N[C@@H](CC(N)=O)C(=O)N[C@H]2C(=O)N[C@H]3C(=O)N[C@H](C(=O)N[C@H](C(=O)O)c4cc(O)cc(O)c4-c4cc3ccc4O)[C@H](O)c3ccc(c(Cl)c3)Oc3cc2cc(c3O[C@@H]2O[C@H](CO)[C@@H](O)[C@H](O)[C@H]2O[C@H]2C[C@](C)(N)[C@H](O)[C@H](C)O2)Oc2ccc(cc2Cl)[C@H]1O [vancomycin],MIC of vancomycin,MRSA 63718,2 µg/mL
"C#CCOc1ccc2c(c1)Sc1c[n+](C)c3ccccc3c1N2 [Compound 6g, 9-propargyloxy-5-methyl-12H-quino[3,4-b][1,4]benzothiazinium chloride]",MBC,[1],90.1 µM
same,MIC,[2],90.1 µM
same,MBC,[3],45.1 µM
same,MBC,[4],90.1 µM
same,MBC,[5],45.1 µM
same,MIC,[6],45.1 µM
same,MBC,[7],45.1 µM
same,MIC,[8],45.1 µM
same,MIC,[9],90.1 µM
same,Effect on plasma membrane permeability (uptake of crystal violet),S. aureus,did not affect plasma membrane permeability
same,MBC,[10],90.1 µM
same,MIC,[11],90.1 µM
same,MIC,M. smegmatis ATCC 700084,22.5 µM
same,MIC,[12],11.3 µM
same,MBC,[13],45.1 µM
same,Conc.: corresponding multiple of MBC with at least 70% inhibition of respiratory activity,[14]; [20],2× MIC (2× MBC)
same,Conc.: lowest multiple of MIC with at least 70% inhibition of respiratory activity,[14]; [20],2× MIC (2× MBC)
same,Decrease in viability < 70% at MIC value (MTT),"[14]; S. aureus ATCC 29213, at MIC",did not show a decrease in viability < 70%
same,S. aureus Respiration Inhibition,[14]; at the concentration given,96.8%
same,MIC,[15],90.1 µM
same,chromatographic logP,Lipophilicity by RP-TLC,2.11
same,MIC,[16],45.1 µM
same,IC50,[17],> 100 µM
same,MBC,[18],90.1 µM
same,MIC,[19],45.1 µM
